# Entries after “also recorded” stand apart in the source; their conditions may differ. Read-outs that look alike come from different tables or passages of the source.
# Key:
# [1] = system: MX-1 Human Breast; test: In vivo activity, SC MX-1 tumor; conditions: Exp 1806; SC MX-1 Human Breast; 8 IV inj.; 12 mg/kg total dose
# Description: (§1) Gross log kill is defmed as T-C/3.2 Td where T is the median time in days for the tumors of the treated group to reach 750 mg, C is the median time in days for the tumors of the control group to reach 750 mg, and Td is the tumor volume doubling time. […] An activity rating of +++ to ++++, which is indicative of clinical activity, is needed to effect partial or complete regression of 100-300 mg size masses of most transplanted solid tumors of mice.
# [2] = system: H125 Human Adenosq-lung; conditions: Exp 1823; SC H125 Human Adenosq-lung; 8 IV inj.; 14.4 mg/kg total dose
# Description: as §1
# [3] = system: Human Sm Cell L. DMS273; test: In vivo activity, SC DMS273 tumor; conditions: Exp 1596; SC Human Sm Cell L. DMS273 SCID; 6 IV inj.; 7.3 mg/kg total dose
# Description: as §1
# [4] = system: LoVo (human colon carcinoma); test: Cytotoxicity against LoVo cell line; assay type: cell-based
# [5] = system: murine and human tumors implanted in mice
# Description: as §1
# [6] = system: M17/0 (Adr. Sens.); test: In vivo activity, SC M17/0 tumor; conditions: Exp 1833; SC M17/0 (Adr. Sens.); 5 IV inj.; 5.4 mg/kg total dose
# Description: as §1
# [7] = system: LNCaP Human Prostate; test: In vivo activity, SC LNCaP tumor; conditions: Exp 1841, 6 IV inj., 6.5 mg/kg total dose
# Description: Gross log kill is defmed as T-C/3.2 Td where T is the median time in days for the tumors of the treated group to reach 750 mg, C is the median time in days for the tumors of the control group to reach 750 mg, and Td is the tumor volume doubling time.
# [8] = system: Mam 16/C (taxol-sensitive mammary #16/C); test: In vivo activity, SC Mam 16/C tumor; conditions: Exp 1720, 5 IV inj., 13.2 mg/kg total dose
# [9] = system: KB (human nasopharyngeal carcinoma); test: Cytotoxicity against KB cell line; assay type: cell-based
# [10] = system: SKOV3 (human ovarian carcinoma); test: Cytotoxicity against SKOV3 cell line (Table 2); assay type: cell-based
# [11] = system: strains of Cryptococcus; conditions: found by researchers at Merck; cited from earlier work
# [12] = system: murine leukemia (L1210 or P388), murine solid tumor, human solid tumor and low malignancy fibroblast (LML) cells
# [13] = system: colon adenocarcinoma #38 (Colon 38, C38); conditions: Exp 1560; SC Colon 38; 8 IV inj.; 10.3 mg/kg total dose
# [14] = system: colon adenocarcinoma #51 (Colon 51); test: In vivo activity, SC Colon 51 tumor; conditions: Exp 1636, 7 IV inj., 28.1 mg/kg total dose
# [15] = system: Mam 16/Taxol (taxol-resistant mammary #16/C/RP); test: In vivo activity, SC Mam 16/Taxol tumor; conditions: Exp 1733, 5 IV inj., 16.5 mg/kg total dose
# Description: as §1
# [16] = system: A-10 rat aortic smooth muscle cells; assay type: cell-based
# Description: A-10 cells were grown to near-confluency on glass coverslips in BME/10% FBS. Compounds in PBS were added to the indicated final concentrations and cells were incubated for an additional 24 hours. For the staining of microtubules and intermediate filaments, the cells were fixed with cold methanol and incubated with PBS containing 10% calf serum to block nonspecific binding sites. Cells were then incubated at 37° C. for 60 min with either monoclonal anti-β-tubulin or with monoclonal anti-vimentin at dilutions recommended by the manufacturer. Bound primary antibodies were subsequently visualized by a 45-minute incubation with fluorescein-conjugated rabbit antimouse IgG. The coverslips were mounted on microscope slides and the fluorescence patterns were examined and photographed using a Zeiss Photomicroscope Ill equipped with epifluorescence optics for fluorescein. […] PBS containing 100 nM TRITC-phalloidin was then added and the mixture was allowed to incubate for 45 min at 37° C. The cells were washed rapidly three times with PBS before the coverslips were mounted and immediately photographed as described above.
# After 24 hours, microtubules and vimentin intermediate filaments were visualized by indirect immunofluorescence and microfilaments were stained using TRITC-phalloidin. The morphological effects of each drug were examined. […] Vimentin intermediate filaments were also evenly distributed throughout the cytoplasm, while bundles of microfilaments were concentrated along the major axis of the cell.
# [17] = system: tumor (leukemia) and normal cell (CFUGM) lines; test: Valeriote assay; assay type: cell-based; conditions: 5 μg/disk
# Description: ^b N = nonselective towards tumor (leukemia) and normal cell (CFUGM)
# LL = lymphocytic leukemia selective (ZL1210 - ZCFUM ≥ 25
# ML = acute myelogenous leukemia (AML) selective (ZAML - ZCFUGM
# [18] = system: Human ovarian carcinoma cells (SKOV3); test: SKOV3 cell proliferation (SRB staining, Example 10); assay type: cell-based; conditions: SKOV3 treated 24 hours with IC50 dose, then drug-free medium
# [19] = 24 hours, 2 μM cytochalasin B, 100 nM vinblastine or 10 nM cryptophycin compounds
compound,measurement,setting,value
COc1ccc(C[C@H]2NC(=O)/C=C/C[C@@H]([C@H](C)[C@H]3O[C@@H]3c3ccccc3)OC(=O)[C@H](CC(C)C)OC(=O)[C@H](C)CNC2=O)cc1Cl [Cryptophycin 1],% Body Wt. Loss at Nadir,[1],-3%
same,Cures,[1],0/5
same,Log Kill,[1],2.0
same,T/C,[1],3%
same,% Body Wt. Loss at Nadir,[2],-15%
same,Cures,[2],0/5
same,Log Kill,[2],1.1
same,T/C,[2],9%
same,dead (animals),[2],1/5
same,% Body Wt. Loss at Nadir,[3],0%
same,Cures,[3],0/5
same,Log Kill,[3],< 1
same,T/C,[3],27%
same,LoVo IC50,[4]; Table 1,0.003 ng/mL
same,LoVo IC50,[4]; Table 2,0.001 ng/mL
same,in vivo activity (in words),[5],active against a broad spectrum of murine and human tumors implanted in mice
same,cause of lethal toxicity observed during testing,[5]; mice,leucopenia
same,tumor burden T/C (mean tumor burden in treated animals/mean tumor burden untreated animals),[5]; text summary over the tumors named in the sentence,less than 10%
same,% Body Wt. Loss at Nadir,[6],-10%
same,Cures,[6],0/5
same,Log Kill,[6],< 1
same,T/C,[6],23%
same,% Body Wt. Loss at Nadir,[7],-6%
same,Cures,[7],0/5
same,Log Kill,[7],< 1
same,T/C,[7],26%
same,% Body Wt. Loss at Nadir,[8],-1%
same,Cures,[8],0/5
same,Log Kill,[8],1.4
same,T/C,[8],5%
same,KB IC50,[9]; Table 1,0.005 ng/mL
same,KB IC50,[9]; Table 2,0.0025 ng/mL
same,SKOV3 IC50,[10],0.026 ng/mL
same,antifungal activity,[11],very active against strains of Cryptococcus
same,"Differential in Zone Units, Corbett Assay",[12]; 12.5 μg/disk,> 400 zone units
same,"Type of Cytotoxicity, Corbett Assay",[12]; 12.5 μg/disk,E/T
same,% Body Wt. Loss at Nadir,[13],Gain
same,Cures,[13],0/5
same,Log Kill,[13],1.5
same,T/C,[13],6%
same,% Body Wt. Loss at Nadir,[14],-11%
same,Cures,[14],0/5
same,Log Kill,[14],1.3
same,T/C,[14],7%
same,% Body Wt. Loss at Nadir,[15],0%
same,Cures,[15],0/4
same,Log Kill,[15],1.8
same,T/C,[15],2%
"C=C1[C@@H](C)[C@H]2[C@H](Cc3ccccc3)NC(=O)[C@]23OC(=O)/C=C/[C@H](O)CCC[C@@H](C)C/C=C/[C@H]3[C@@H]1O [Cytochalasin B, cytochalasin B]",effect on microfilaments,"[16]; 2 μM cytochalasin B, 24 hours",complete depolymerization of microfilaments
same,effect on microtubules,[16]; [19],did not affect the distribution of either microtubules or intermediate filaments
"COc1cc([C@@H]2c3cc4c(cc3[C@@H](O[C@@H]3O[C@@H]5CO[C@@H](C)O[C@H]5[C@H](O)[C@H]3O)[C@H]3COC(=O)[C@H]23)OCO4)cc(OC)c1O [VP-16, etoposide, reference compound]","Differential in Zone Units, Valeriote Assay",[17],260 zone units
same,"Differential in Zone Units, Corbett Assay",[12]; 5 μg/disk,350 zone units
"CC(=O)O[C@H]1C(=O)[C@@]2(C)[C@H]([C@H](OC(=O)c3ccccc3)[C@]3(O)C[C@H](OC(=O)[C@H](O)[C@@H](NC(=O)c4ccccc4)c4ccccc4)C(C)=C1C3(C)C)[C@]1(OC(C)=O)CO[C@@H]1C[C@@H]2O [taxol, reference compound]",microtubule organization in taxol-treated cells,[16]; 10 μM taxol,extensively bundled
same,"Differential in Zone Units, Corbett Assay",[12]; 0.2 μg/disk,≥ 400 zone units
same,"Type of Cytotoxicity, Corbett Assay",[12]; 0.2 μg/disk,M/H/T
CC[C@]1(O)C[C@@H]2CN(CCc3c([nH]c4ccccc34)[C@@](C(=O)OC)(c3cc4c(cc3OC)N(C)[C@H]3[C@@](O)(C(=O)OC)[C@H](OC(C)=O)[C@]5(CC)C=CCN6CC[C@]43[C@@H]65)C2)C1 [vinblastine],microtubule depolymerization after taxol pretreatment,"[16]; 3 hours 10 μM taxol, then 100 nM vinblastine or 10 nM cryptophycin compound, 24 hours",pretreatment with taxol prevented microtubule depolymerization
same,effect on vimentin intermediate filaments,"[16]; 24 hours, 100 nM vinblastine or 10 nM cryptophycin compounds",vimentin intermediate filaments collapsed
same,effect on microtubules,[16]; [19],marked depletion of microtubules; also recorded: complete depolymerization of microtubules
same,reversibility of microtubule depolymerization after removal of the drug,"[16]; 24 hr treatment (100 nM vinblastine or 10 nM cryptophycins), then 1 hour or 24 hours drug-free medium",complete morphological recovery by 24 hour
same,increase in cell number in the 24 hours following removal of the drug,[18],approximately 3 fold

# Source: US5952298A, “Cryptophycins” (priority 1995, dated 1999)
